Assay results: US20220145260A1, “METHOD FOR CULTURING HEPATIC EPITHELIOID TISSUE HAVING A STRUCTURE OF CONNECTIONS BETWEEN HEPATOCYTES AND BILE DUCT EPITHELIAL CELL” (SAPPORO MEDICAL UNIVERSITY, priority 2019, published 2022)

Columns and labels:
[1] = system: hepatic epithelioid tissue (small hepatocytes and bile duct epithelial cells); assay: Fluorescein diacetate uptake and flow into bile duct in hepatic epithelioid tissue; type: cell-based, mice; conditions: hepatic epithelioid tissue 2 weeks after overlaying Matrigel; fluorescence microscopy
Description: After 4 mg/ml of a type I collagen solution was prepared, it was added to wells of a pre-cooled culture plate (manufactured by Greiner Bio-One Co., Ltd.), followed by allowing to stand at 37° C. for 30 to 60 minutes to be gelatinized. Bile duct epithelial cells suspended in a DMEM/F12 medium (manufactured by Sigma Aldrich Co. LLC) containing 10% serum (fetal bovine serum), 1×insulin-transferrin-selenium (ITS), 0.1 μM dexamethasone, 5 ng/ml epidermal growth factor (EGF), and 5 ng/ml hepatocyte growth factor (HGF) were inoculated in a 24-well plate at 5×10^4 cells/well. […] The density in the cultured region of the bile duct epithelial cells in the cultured region was measured with image analysis software (manufactured by Olympus Corporation) by using photographs taken under a microscope. […]
Fluorescein diacetate (FDA) (manufactured by Tokyo Chemical Industry Co., Ltd.) was taken up by the above-mentioned hepatic epithelioid tissue 2 weeks after overlaying Matrigel, and observation was performed with a phase-contrast microscope and a fluorescence microscope. […] FDA is taken by hepatocytes and hydrolyzed to become fluorescein that emits a fluorescence, and then is excreted into the bile canaliculus.

[2] = system: hepatic epithelioid tissue (small hepatocytes and bile duct epithelial cells); assay: Uptake of bilirubin by the hepatic epithelioid tissue reconstructed ex vivo; type: cell-based, mice; conditions: 10 μg/ml bilirubin, 3 to 5 days culture; tissue 2 weeks after overlaying Matrigel; Fouchet's reagent staining
[3] = system: barrier functions of the epithelial cells in the organoid; assay: Release of CLF into the medium by inhibition of cell-cell adhesion (tight junction barrier) with MβCD; type: cell-based, mice
[4] = system: hepatic epithelioid tissue (small hepatocytes and bile duct epithelial cells); assay: Transportation of bile acid analog CLF from hepatocytes to the bile duct; type: cell-based, mice; conditions: after 6 hours; 1 month after overlaying gel
[5] = system: coculture of human CLiP and murine bile duct epithelial cells; assay: CLF transport in coculture of human reprogramming hepatocytes (hCLiP) and murine BEC; type: cell-based; conditions: one week after overlaying collagen gel containing 40% Matrigel
Description: In order to produce an organoid reflecting the metabolic functions of humans, coculture of human reprogramming hepatocytes and murine bile duct epithelial cells was performed. Specifically, murine bile duct epithelial cells were cultured on a collagen gel (the amount of collagen contained in the collagen gel: 4 mg/ml) for 5 days, and then CLIP was inoculated. Two days later, human recombinant oncostatin M (hOSM) (manufactured by R&D Systems Inc.) was added, and then 1 day later, a collagen gel containing 40% EHSgel (Matrigel) was overlaid to perform coculture.
(A) It can be seen that the contact surface between murine BEC (the range indicated in red) and human CLIP has been formed during the early stage of coculture (see FIG. 10A). (B) One week after overlaying a collagen gel containing EHSgel (Matrigel), CLF was added.

Compound: CC(=O)Oc1ccc2c(c1)Oc1cc(OC(C)=O)ccc1C21OC(=O)c2ccccc21 [Fluorescein diacetate]
- flow of fluorescein (from FDA hydrolysed in hepatocytes) into the bile duct [1]: fluorescein has flowed into the bile duct

Compound: C=CC1=C(C)/C(=C/c2[nH]c(Cc3[nH]c(/C=C4\NC(=O)C(C)=C4C=C)c(C)c3CCC(=O)O)c(CCC(=O)O)c2C)NC1=O [bilirubin]
- flow of bilirubin taken up by hepatocytes into bile duct structure [2]: flows into a bile duct structure formed by bile duct epithelial cells

Compound: Methyl beta cyclodextrin [MβCD]
- concentration dependence of CLF release into the medium ([3]; 25 mM or 75 mM MβCD): release depends on the concentration of MβCD
- CLF fluorescence leaked into the medium after MβCD addition ([3]; 25 mM or 75 mM MβCD vs no addition, cells 1 month after addition of EHS-gel): fluorescence was detected in the medium

Compound: cholyl lysine fluorescein [CLF]
- transport to the bile duct [4]: transported to the bile duct
- transport of CLF taken up by human CLiP to murine bile duct tissue [5]: transported to a murine bile duct tissue
